Reference: ChEMBL document CHEMBL1142713, “From 4,5,6,7-tetrahydro-5-methylimidazo[4,5,1-jk](1,4)benzodiazepin-2(1H)-one (TIBO) to etravirine (TMC125): fifteen years of research on non-nucleoside inhibitors of HIV-1 reverse transcriptase” (J Med Chem, 2005)

Experiments:
[1] = system: MT4; assay: Effective concentration of the compound to inhibit HIV-1 mutant K103N+Y181C replication in HIV-infected MT-4 cells; format: functional, cell-based, Homo sapiens
[2] = system: MT4; assay: Effective concentration of the compound to inhibit HIV-1 mutant L100I+K103N replication in HIV-infected MT-4 cells; format: functional, cell-based, Homo sapiens
[3] = system: MT4; assay: Effective concentration of the compound to inhibit […] replication in HIV-infected MT-4 cells; format: functional, cell-based; settings: Homo sapiens
[4] = system: MT4; assay: Effective concentration of the compound to inhibit HIV-1 mutant K103N replication in HIV-infected MT-4 cells; format: functional, cell-based, Homo sapiens
[5] = system: MT4; assay: Effective concentration of the compound to inhibit HIV-1 mutant L100I replication in HIV-infected MT-4 cells; format: functional, cell-based, Homo sapiens
[6] = system: MT4; assay: Effective concentration of the compound to inhibit HIV-1 mutant Y181C replication in HIV-infected MT-4 cells; format: functional, cell-based, Homo sapiens
[7] = system: MT4; assay: Effective concentration of the compound to inhibit HIV-1 mutant Y188L replication in HIV-infected MT-4 cells; format: functional, cell-based, Homo sapiens
[8] = system: MT4; assay: Effective concentration of the compound to inhibit HIV-1 replication in HIV-infected MT-4 cells; format: functional, cell-based; settings: Homo sapiens

| SMILES | EC50 [1] [nM] | EC50 [2] [nM] | EC50 [3] [nM] | EC50 [4] [nM] | EC50 [5] [nM] | EC50 [6] [nM] | EC50 [7] [nM] | EC50 [8] [nM] |
| --- | --- | --- | --- | --- | --- | --- | --- | --- |
| Cc1cc(C#N)cc(C)c1Nc1nc(Nc2ccc(C#N)cc2)ncc1Br | 32 | 37 | 0.4 | 0.4 | 7 | 10 | 3 |  |
| Cc1cc(C)c(Oc2ccnc(Nc3ccc(C#N)cc3)n2)c(C)c1 | 1100 | 8200 | 3 | 3 | 22 | 38 | 55 |  |
| Cc1cc(C)c(Nc2nc(Nc3ccc(C#N)cc3)ncc2Br)c(C)c1 | 280 | 350 | 6 | 7 | 11 | 36 | 27 |  |
| C=CCN1Cc2cccc3[nH]c(=O)n(c23)CC1C (stereo unspecified) |  |  |  |  |  |  |  | 62000 |
| Cc1cc(C)c(Nc2ccnc(Nc3ccc(C#N)cc3)n2)c(C)c1 [DAPIVIRINE] | 44 | > 10000 | 1 | 4 | 18 | 8 | 48 |  |
| N#Cc1ccc(Nc2cc(N)nc(Cc3c(Cl)cccc3Cl)n2)cc1 |  |  | 450 | > 10000 | > 10000 | > 10000 | > 10000 |  |
| N#Cc1ccc(Nc2nc(N)cc(Cc3c(Cl)cccc3Cl)n2)cc1 |  |  | 1 | 12 | 300 | 180 | 71 |  |
| O=C1Nc2ccc(Cl)cc2[C@@](C#CC2CC2)(C(F)(F)F)O1 [EFAVIRENZ] | 40 | > 10000 | 1 | 40 | 40 | 2 | 160 |  |
| NC(=O)C(/N=C(\S)Nc1ccc(Cl)cc1)c1c(Cl)cccc1Cl (stereo unspecified) |  |  |  |  |  |  |  | 160 |
| NC(=O)C(NCc1ccccc1[N+](=O)[O-])c1c(Cl)cccc1Cl (stereo unspecified) |  |  |  |  |  |  |  | > 50000 |
| N#Cc1ccc(Nc2nc(N)nc(Cc3c(Cl)cccc3Cl)n2)cc1 |  |  | 6 | 40 | 400 | 200 | 320 |  |
| CC(C)=CCN1Cc2cc(Cl)cc3[nH]c(=S)n(c23)C[C@@H]1C |  |  |  |  |  |  |  | 33 |
| NC(=O)C(NC(=O)c1ccccc1[N+](=O)[O-])c1c(Cl)cccc1Cl (stereo unspecified) |  |  |  |  |  |  |  | > 50000 |
| NC(=O)C(NC(=O)Nc1ccccc1[N+](=O)[O-])c1c(Cl)cccc1Cl (stereo unspecified) |  |  |  |  |  |  |  | > 50000 |
| Cc1cc(C#N)cc(C)c1Nc1ncnc(Nc2ccc(C#N)cc2)n1 |  | > 10000 | 1 | 8 | 250 | 50 | 50 |  |
| Cc1ccnc2c1NC(=O)c1cccnc1N2C1CC1 [NEVIRAPINE] | > 10000 |  | 32 | 6310 | 320 | 10000 | > 100000 |  |

| SMILES | EC50 [1] [nM] | EC50 [2] [nM] | EC50 [3] [nM] | EC50 [4] [nM] | EC50 [5] [nM] | EC50 [6] [nM] | EC50 [7] [nM] | EC50 [8] [nM] |
| --- | --- | --- | --- | --- | --- | --- | --- | --- |
| Cc1cc(C#N)cc(C)c1Oc1ccnc(Nc2ccc(C#N)cc2)n1 | 94 | 800 | 1 | 3 | 73 | 37 | 19 |  |
| Cc1cc(C#N)cc(C)c1Oc1nc(Nc2ccc(C#N)cc2)nc(N)c1Br [ETRAVIRINE] | 4 | 19 | 1 | 1 | 3 | 7 | 5 |  |
| NC(=O)C(/N=C(\S)Nc1ccccc1Cl)c1c(Cl)cccc1Cl (stereo unspecified) |  |  |  |  |  |  |  | > 50000 |
| N#Cc1ccc(Nc2cc(Cc3c(Cl)cccc3Cl)nc(N)n2)cc1 |  |  | 10 | > 10000 | > 10000 | > 10000 | > 10000 |  |
| Cc1cc(C)c(Oc2ncnc(Nc3ccc(C#N)cc3)n2)c(C)c1 | 130 | 2500 | 0.6 | 3 | 20 | 20 | 63 |  |
| NC(=O)C(Nc1ccccc1Cl)c1c(Cl)cccc1Cl (stereo unspecified) |  |  |  |  |  |  |  | 400 |
| NC(=O)C(Nc1ccccc1[N+](=O)[O-])c1c(Cl)cccc1Cl (stereo unspecified) |  |  |  |  |  |  |  | 100 |
| Cc1cc(C#N)cc(C)c1Nc1ccnc(Nc2ccc(C#N)cc2)n1 | 37 | 1100 | 0.4 | 2 | 34 | 7 | 8 |  |
| Cc1cc(C#N)cc(C)c1Oc1nc(Nc2ccc(C#N)cc2)ncc1Br | 25 | 49 | 1 | 1 | 7 | 22 | 6 |  |
| N#Cc1ccc(NC(=S)NC(=N)Cc2c(Cl)cccc2Cl)cc1 |  |  | 3 | 590 | 510 | 510 | 320 |  |
| CC(C)Nc1cccnc1N1CCN(C(=O)c2cc3cc(NS(C)(=O)=O)ccc3[nH]2)CC1 [DELAVIRDINE] | > 10000 |  | 63 | 2500 | 2500 | 2000 | 1300 |  |
| CC(=O)c1ccc(C)cc1NC(C(N)=O)c1c(Cl)cccc1Cl (stereo unspecified) [LOVIRIDE] |  |  | 13 | 1300 | 50 | 16000 | 50000 |  |
| CC(C)=CCN1Cc2c(Cl)ccc3[nH]c(=S)n(c23)C[C@@H]1C [TIVIRAPINE] |  |  |  |  |  |  |  | 4.6 |
| NC(=O)C(Nc1ccc(Cl)cc1)c1c(Cl)cccc1Cl (stereo unspecified) |  |  |  |  |  |  |  | > 50000 |
| COc1ccccc1NC(C(N)=O)c1c(Cl)cccc1Cl (stereo unspecified) |  |  |  |  |  |  |  | 610 |
| N#Cc1ccc(Nc2nc(Cc3c(Cl)cccc3Cl)ns2)cc1 |  |  |  |  |  |  |  | > 1000 |
